Experimental data: PubChem BioAssay (NCI)
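48-hour exposure; five concentrations; linearly interpolated endpoints. GI50 marks 50% less growth. TGI: total growth inhibition.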

How the values were obtained:
Experiment in all cases: inhibition of tumour cell growth, NCI panel, 48 h
COLO 205 colon = system: COLO 205 colon
A498 renal = system: A498 renal
MOLT-4 leukemia = system: MOLT-4 leukemia
MALME-3M melanoma = system: MALME-3M melanoma
UACC-257 melanoma = system: UACC-257 melanoma
OVCAR-5 ovarian = system: OVCAR-5 ovarian
K-562 leukemia = system: K-562 leukemia
ACHN renal = system: ACHN renal
EKVX NSCLC = system: EKVX NSCLC
NCI/ADR-RES ovarian = system: NCI/ADR-RES ovarian

| SMILES | TGI (COLO 205 colon) [µM] | TGI (A498 renal) [µM] | TGI (MOLT-4 leukemia) [µM] | TGI (MALME-3M melanoma) [µM] | TGI (UACC-257 melanoma) [µM] | TGI (OVCAR-5 ovarian) [µM] | TGI (K-562 leukemia) [µM] | TGI (ACHN renal) [µM] | TGI (EKVX NSCLC) [µM] | GI50 (COLO 205 colon) [nM] | GI50 (A498 renal) [nM] | GI50 (MOLT-4 leukemia) [µM] | GI50 (MALME-3M melanoma) [µM] | GI50 (UACC-257 melanoma) [µM] | GI50 (OVCAR-5 ovarian) [µM] | GI50 (K-562 leukemia) [nM] | GI50 (ACHN renal) [µM] | GI50 (EKVX NSCLC) [µM] | GI50 (NCI/ADR-RES ovarian) [µM] | TGI (NCI/ADR-RES ovarian) [µM] |
| --- | --- | --- | --- | --- | --- | --- | --- | --- | --- | --- | --- | --- | --- | --- | --- | --- | --- | --- | --- | --- |
| CN(C(=O)C12C3C4C1C1C2C3C41C(=O)C(C)(C)C)C(C)(C)C (stereo unspecified) | > 100 | > 100 | > 100 | > 100 | > 100 | > 100 | > 100 | > 100 | > 100 |  |  |  |  |  |  |  |  |  |  |  |
| CC(C)CC(=O)[O-].CC(C)CC(=O)[O-].N.N.N.N.[Co+3].[O-][Cl+3]([O-])([O-])[O-] | > 100 | > 100 | > 100 | > 100 | > 100 | > 100 | > 100 | > 100 | > 100 | > 100000 | > 100000 | > 100 | > 100 | > 100 | > 100 | > 100000 | > 100 | > 100 |  |  |
| CCOc1ccc2c(c1)[n+]([O-])c(S(=O)(=O)c1ccc(C)cc1)c(N)[n+]2[O-] | > 100 | > 100 | > 100 | > 100 | > 100 | > 100 | > 100 | > 100 | > 100 |  |  |  |  |  |  |  |  |  |  |  |
| NCC(=O)NS(=O)(=O)OC[C@H]1O[C@@H](n2cnc3c(N)ncnc32)[C@H](O)[C@@H]1O | 6.14 | 3.21 | 8.86 | 3.87 |  | 4.1 | 11.8 | 8.37 | 8.88 | 2270 | 1600 | 2.62 | 1.92 |  | 0.75 | 3710 | 2.89 | 2.58 | 2.53 | 9.67 |
| C=C(CN1CCc2ccccc2C1)c1ccc(C(=O)Nc2cnccn2)cc1 | 40.1 | > 100 | > 100 |  | > 100 | > 100 | 14.7 | > 100 | > 100 | 17500 | 33400 | 5.82 |  | 83.6 | > 100 | 3170 | 30.8 | 52.8 | 4.95 | > 100 |
| O=C1/C(=C/c2ccc(Cl)cc2Cl)N=C(c2ccccc2)N1Cc1ccco1 |  | 61 | > 100 | 52.8 | > 100 | > 100 | > 100 | 28 | 75 |  | 22300 | 25.8 | 21.2 | 36.5 | 34.5 | 41100 | 11.8 | 27.3 | 25.5 | 57.9 |
| COc1cnc2cc(C(=O)O)c3c([N+](=O)[O-])cccc3c2c1 | > 100 |  | > 100 | > 100 | > 100 | > 100 | > 100 | > 100 | > 100 |  |  |  |  |  |  |  |  |  |  | > 100 |
| O=C1c2cccc(NCCN=Cc3cc(O)ccc3O)c2C(=O)c2c(NCCN=Cc3cc(O)ccc3O)cccc21 | 1.94 | 3.1 | 1.46 |  | 10.8 | 5.14 | 3.9 | 8.93 | 5.77 | 495 | 1410 | 0.319 |  | 3.1 | 2.12 | 1450 | 2.05 | 1.8 | 13.4 | 35.9 |
| COc1ccc(CNc2cc(OC)c(OC)c(OC)c2)cc1 | 9.34 | > 83.4 | > 77.8 | > 100 | > 100 | > 83.7 | > 44.4 | > 100 | 98.9 |  |  |  |  |  |  |  |  |  |  |  |
| CCNCCNc1cc(-c2ccc(C(=O)OC)cc2)c(C#N)c2nc3ccccc3n12 | 2.24 | 5.13 |  | 3.69 | 3.71 | > 100 | 3.2 | 3.3 | > 100 | 623 | 1990 |  | 1.95 | 1.87 | 3.08 | 1230 | 1.66 | 4.07 | 2.8 | > 100 |
| CN(C)CCNc1cc(-c2ccccc2)nc2ccccc12 | 7.74 | 13.6 | 11.6 | 27.7 | 26.7 | 36.8 | 12.3 | 38.9 |  | 2920 | 2010 | 3.27 | 12.6 | 11.5 | 5.9 | 2600 | 4.42 |  | 9.11 | 53.3 |
| COc1ccc2c(c1)c(-c1nc(-c3cn(C)c4ncccc34)cs1)cn2CCCN1CCCCC1 |  | 6.22 | 3.36 | 3.25 | 3.66 | 3.25 | 3.4 | 3.06 | 3.17 |  | 2400 | 1.71 | 1.64 | 1.92 | 1.64 | 1640 | 1.69 | 1.67 | 1.76 | 3.46 |
| O=C(O)Cn1ccc(=O)c2ccc([N+](=O)[O-])cc21 | > 100 | > 100 | > 100 | > 100 | > 100 | > 100 | > 100 | > 100 |  |  |  |  |  |  |  |  |  |  |  | > 100 |
| CC1(Cl)C(=O)NC(=O)N(C2CC(N=[N+]=[N-])C(CO)O2)C1N=[N+]=[N-] (stereo unspecified) | > 100 | > 100 | > 100 | > 100 | > 100 | > 100 | > 100 | > 100 | > 100 |  |  |  |  |  |  |  |  |  |  |  |
| CC1OC(O[C@H]2C[C@@H](O)[C@]3(CO)[C@H]4[C@H](O)C[C@]5(C)[C@@H](C6=CC(=O)OC6)CC[C@]5(O)[C@@H]4CC[C@]3(O)C2)C(O)C(O)C1O (stereo partly specified) | 33.7 | 39 | 41.8 | 35.9 | 39.2 | > 100 |  | 35.5 | 30.5 | 18500 | 20400 | 17.9 | 19.5 | 19.5 | 35.7 |  | 20.2 | 16.5 | 19.5 | 39.9 |
